Measured values reported in BigSolDB 2.1.

C/C=C/C=C/C(=O)O
solubility (mole fraction)
Details | 285.15 K | 289.15 K | 293.15 K | 298.15 K | 303.15 K | 308.15 K | 312.65 K | 318.15 K | 323.15 K
in MTBE | 0.0403 | 0.0439 | 0.0512 | 0.0577 | 0.0693 | 0.0785 | 0.093 | 0.109 | 0.121
in acetone | 0.0476 | 0.0528 | 0.0613 | 0.0701 | 0.0871 | 0.0968 | 0.115 | 0.14 | 0.156
in acetonitrile | 0.00625 | 0.00746 | 0.0098 | 0.0112 | 0.0149 | 0.0172 | 0.0196 | 0.0248 | 0.0306
in ethanol | 0.0442 | 0.0488 | 0.0572 | 0.0643 | 0.0747 | 0.0872 | 0.101 | 0.121 | 0.143
in ethyl acetate | 0.0266 | 0.0314 | 0.0357 | 0.0452 | 0.0542 | 0.0626 | 0.0713 | 0.0862 | 0.102
in isopropanol | 0.0383 | 0.0444 | 0.053 | 0.0613 | 0.0684 | 0.0753 | 0.086 | 0.0965 | 0.103
in methanol | 0.0328 | 0.0392 | 0.0457 | 0.0553 | 0.0643 | 0.0749 | 0.083 | 0.0934 | 0.106
in n-butanol | 0.0619 | 0.0738 | 0.0844 | 0.0973 | 0.108 | 0.121 | 0.135 | 0.154 | 0.173
